27 molecules from patent publication US9944639B2, “Quinolizinone derivatives as PI3K inhibitors” (Lupin Limited, priority 2014, dated 2018) can be followed below.

In the assay the target is T1, PI3Kδ (Homo sapiens, UniProt O00329).
T1 construct: endogenous in cells; host or cells: Raji cells
The assay can be described thus: Cell Based Assay for PI3Kδ (AKT phosphorylation, AlphaScreen SureFire, anti-IgM stimulated Raji cells). Particulars: compounds 1 h, anti-IgM (3 μg/mL) 30 min, phosphorylation of AKT, read-out: PI3Kδ inhibition IC50. On the procedure:
[formula] C) Cell Based Assay for PI3Kδ
Raji cells were maintained in RPMI-1640 (Sigma) supplemented with 10% fetal bovine serum (heat inactivated) (FBS, Sigma), 100 U penicillin/mL, and […] streptomycin and incubated at 37° C. and 5% CO2. Cells were centrifuged and resuspended in a complete medium. The required numbers of cells were transferred to a tissue culture flask containing medium without serum for 1 h at 37° C., 5% CO2. Following 1 h serum starvation, cells were centrifuged and resuspended in Hank's Balanced Salt Solution (HBSS, Sigma) and seeded in at a density of 1 million cells/well in 96-well clear bottom plates. The cells were treated with test compounds for 1 h at 37° C., 5% CO2. Cells were then stimulated with anti-IgM (3 μg/mL) for 30 min. After Stimulation, cells were lysed with 15 μL of 5× lysis buffer and the plate was shaken on an orbital plate shaker at approximately 300 rpm for 10 min. AlphaScreen® SureFire® Cell-based Assay (Perkin-Elmer, Waltham, Mass., USA) was performed to measure phosphorylation of AKT, in the cells according to the manufacturer's instructions. The luminescence was measured using an alpha technology-compatible plate reader BMG Labtech, Germany) at 520-620 nm. Percentage inhibition was calculated according to formula: […]
IC50 values were calculated by plotting % inhibition against the respective concentrations of test compounds using GraphPad Prism 5.
(Alpha assays give light when donor and acceptor beads are brought close together.)

T1 sequence (O00329 whole entry): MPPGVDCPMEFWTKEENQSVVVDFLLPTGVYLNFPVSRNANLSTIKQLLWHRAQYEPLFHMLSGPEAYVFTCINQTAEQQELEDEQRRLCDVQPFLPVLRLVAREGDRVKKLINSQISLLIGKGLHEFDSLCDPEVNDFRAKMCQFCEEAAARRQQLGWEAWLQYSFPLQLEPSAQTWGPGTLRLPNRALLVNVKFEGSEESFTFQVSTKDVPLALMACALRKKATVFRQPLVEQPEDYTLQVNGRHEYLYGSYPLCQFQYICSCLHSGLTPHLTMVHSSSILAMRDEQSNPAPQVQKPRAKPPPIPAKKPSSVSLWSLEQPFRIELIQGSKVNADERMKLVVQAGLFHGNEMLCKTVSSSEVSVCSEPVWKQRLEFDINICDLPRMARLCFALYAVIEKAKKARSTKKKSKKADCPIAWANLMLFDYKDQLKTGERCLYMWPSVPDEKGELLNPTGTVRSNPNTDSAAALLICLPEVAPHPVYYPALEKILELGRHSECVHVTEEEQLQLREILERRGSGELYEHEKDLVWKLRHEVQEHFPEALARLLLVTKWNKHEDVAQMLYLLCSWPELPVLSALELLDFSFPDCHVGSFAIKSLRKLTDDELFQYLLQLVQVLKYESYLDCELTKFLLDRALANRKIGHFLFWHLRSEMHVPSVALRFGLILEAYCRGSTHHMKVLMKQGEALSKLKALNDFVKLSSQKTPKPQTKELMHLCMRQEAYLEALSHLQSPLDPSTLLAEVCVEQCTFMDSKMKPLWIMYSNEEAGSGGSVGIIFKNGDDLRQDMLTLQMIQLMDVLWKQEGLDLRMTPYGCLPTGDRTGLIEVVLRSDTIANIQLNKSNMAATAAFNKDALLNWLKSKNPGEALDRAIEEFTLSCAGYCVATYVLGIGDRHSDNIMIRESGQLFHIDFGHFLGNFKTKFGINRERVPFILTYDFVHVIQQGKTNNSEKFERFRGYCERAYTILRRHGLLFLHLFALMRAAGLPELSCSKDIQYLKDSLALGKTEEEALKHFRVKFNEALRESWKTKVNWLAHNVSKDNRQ
T1 sequence (P27986 whole entry partner): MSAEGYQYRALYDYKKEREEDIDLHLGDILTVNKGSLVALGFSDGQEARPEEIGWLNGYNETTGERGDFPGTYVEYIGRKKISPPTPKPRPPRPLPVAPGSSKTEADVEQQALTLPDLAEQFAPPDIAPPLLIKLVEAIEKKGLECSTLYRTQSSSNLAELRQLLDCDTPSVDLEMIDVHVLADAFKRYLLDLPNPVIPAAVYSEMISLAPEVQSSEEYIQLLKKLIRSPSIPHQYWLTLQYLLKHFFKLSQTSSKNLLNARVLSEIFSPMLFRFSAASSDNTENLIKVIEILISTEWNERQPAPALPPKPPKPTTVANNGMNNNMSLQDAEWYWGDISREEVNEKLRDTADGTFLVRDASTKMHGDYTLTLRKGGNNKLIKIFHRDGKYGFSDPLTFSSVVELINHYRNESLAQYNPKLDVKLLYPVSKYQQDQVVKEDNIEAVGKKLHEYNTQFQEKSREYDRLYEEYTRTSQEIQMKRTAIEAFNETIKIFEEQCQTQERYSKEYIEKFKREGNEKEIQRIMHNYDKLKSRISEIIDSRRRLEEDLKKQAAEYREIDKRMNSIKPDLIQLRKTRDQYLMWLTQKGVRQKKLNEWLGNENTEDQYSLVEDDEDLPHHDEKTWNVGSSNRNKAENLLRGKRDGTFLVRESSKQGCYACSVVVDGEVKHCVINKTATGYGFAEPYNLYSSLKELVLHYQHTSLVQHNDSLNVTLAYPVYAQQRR

By IC50 is commonly meant the concentration that gives 50% inhibition. With `C[C@H](Nc1ncnc(N)c1C#N)c1cc2ccccn2c(=O)c1-c1ccccc1` (single isomer, unassigned) [Compound 4a, 4-Amino-6-((1-(4-oxo-3-phenyl-4H-quinolizin-2-yl)ethyl)amino)pyrimidine-5-carbonitrile], the IC50 is 11 to 50 nM.
Regarding `C[C@H](Nc1ncnc2[nH]cnc12)c1cc2ccccn2c(=O)c1-c1cccc(F)c1` (single isomer, unassigned) [Compound 5a, 2-(1-((9H-purin-6-yl)amino)ethyl)-3-(3-fluorophenyl)-4H-quinolizin-4-one], the IC50 fell in the range of 51 to 250 nM.
As for `C[C@H](Nc1ncnc(N)c1C#N)c1cc2ccccn2c(=O)c1-c1cccc(F)c1` (single isomer, unassigned) [Compound 6a, 4-Amino-6-((1-(3-(3-fluorophenyl)-4-oxo-4H-quinolizin-2-yl)ethyl)amino)-pyrimidine-5-carbonitrile], the IC50 was 0.1 to 10 nM.
As for `Cc1cccc2cc([C@H](C)Nc3nc(N)nc4[nH]cnc34)c(-c3ccccc3)c(=O)n12` (single isomer, unassigned) [Compound 8a, 2-(1-((2-Amino-9H-purin-6-yl)amino)ethyl)-6-methyl-3-phenyl-4H-quinolizin-4-one], the figure is 0.1 to 10 nM; as for `Cc1cccc2cc([C@H](C)Nc3nc(F)nc4[nH]cnc34)c(-c3ccccc3)c(=O)n12` (single isomer, unassigned) [Compound 9a, 2-(1-((2-Fluoro-9H-purin-6-yl)amino)ethyl)-6-methyl-3-phenyl-4H-quinolizin-4-one], 0.1 to 10 nM.
As for `Cc1cccc2cc([C@H](C)Nc3ncnc(N)c3C#N)c(-c3cccc(F)c3)c(=O)n12` (single isomer, unassigned) [Compound 10a, 4-Amino-6-((1-(3-(3-fluorophenyl)-6-methyl-4-oxo-4H-quinolizin-2-yl)ethyl)amino)pyrimidine-5-carbonitrile], the figure is 0.1 to 10 nM; as for `Cc1cccc2cc([C@H](C)Nc3ncnc4[nH]cnc34)c(-c3cccc(F)c3)c(=O)n12` (single isomer, unassigned) [Compound 11a, 2-(1-((9H-purin-6-yl)amino)ethyl)-3-(3-fluorophenyl)-6-methyl-4H-quinolizin-4-one], 0.1 to 10 nM.
As for `Cc1cccc2cc([C@H](C)Nc3nc(N)nc4[nH]cnc34)c(-c3cccc(F)c3)c(=O)n12` (single isomer, unassigned) [Compound 12a, 2-(1-((2-Amino-9H-purin-6-yl)amino)ethyl)-3-(3-fluorophenyl)-6-methyl-4H-quinolizin-4-one], the figure is 0.1 to 10 nM; as for `C[C@H](Nc1ncnc(N)c1C#N)c1cc2ccc(F)cn2c(=O)c1-c1ccccc1` (single isomer, unassigned) [Compound 14a], 11 to 50 nM; as for `C[C@H](Nc1nc(N)nc2[nH]cnc12)c1cc2ccc(F)cn2c(=O)c1-c1cccc(F)c1` (single isomer, unassigned) [Compound 15a, 2-(1-((2-Amino-9H-purin-6-yl)amino)ethyl)-7-fluoro-3-(3-fluorophenyl)-4H-quinolizin-4-one], 11 to 50 nM.
In the case of `C[C@H](Nc1ncnc(N)c1C#N)c1cc2ccc(F)cn2c(=O)c1-c1cccc(F)c1` (single isomer, unassigned) [Compound 16a, 4-Amino-6-((1-(7-fluoro-3-(3-fluorophenyl)-4-oxo-4H-quinolizin-2-yl)ethyl)amino)pyrimidine-5-carbonitrile], the IC50 was 0.1 to 10 nM.
On to `Cc1cccc2cc([C@H](C)Nc3ncnc(N)c3C#N)c(-c3cc(F)cc(F)c3)c(=O)n12` (single isomer, unassigned) [Compound 17a, 4-Amino-6-((1-(3-(3,5-difluorophenyl)-6-methyl-4-oxo-4H-quinolizin-2-yl)ethyl)amino)pyrimidine-5-carbonitrile], for which the IC50 lay in the range of 0.1 to 10 nM.
`Cc1cccc2cc([C@H](C)Nc3nc(N)nc4[nH]cnc34)c(-c3cc(F)cc(F)c3)c(=O)n12` (single isomer, unassigned) [Compound 18a, 2-(1-((2-amino-9H-purin-6-yl)amino)ethyl)-3-(3,5-difluorophenyl)-6-methyl-4H-quinolizin-4-one]: the IC50 lay within 0.1 to 10 nM.
As for `Cc1cccc2cc([C@H](C)Nc3ncnc(N)c3C#N)c(-c3ccc(F)c(F)c3)c(=O)n12` (single isomer, unassigned) [Compound 19a, 4-Amino-6-((1-(3-(3,4-difluorophenyl)-6-methyl-4-oxo-4H-quinolizin-2-yl)ethyl)amino)pyrimidine-5-carbonitrile], the figure is 11 to 50 nM.
As for `C[C@H](Nc1nc(N)ncc1C#N)c1cc2ccc(F)cn2c(=O)c1-c1cccc(F)c1` (single isomer, unassigned) [Compound 20a, 2-Amino-4-((1-(7-fluoro-3-(3-fluorophenyl)-4-oxo-4H-quinolizin-2-yl)ethyl)amino)pyrimidine-5-carbonitrile], the figure is 11 to 50 nM; as for `Cc1nc(N)nc(N[C@@H](C)c2cc3ccc(F)cn3c(=O)c2-c2cccc(F)c2)c1C#N` (single isomer, unassigned) [Compound 21a, 2-Amino-4-((1-(7-fluoro-3-(3-fluorophenyl)-4-oxo-4H-quinolizin-2-yl)ethyl)amino)-6-methylpyrimidine-5-carbonitrile], 0.1 to 10 nM; as for `Cc1c(F)ccc2cc([C@H](C)Nc3ncnc(N)c3C#N)c(-c3cccc(F)c3)c(=O)n12` (single isomer, unassigned) [Compound 23a, 4-Amino-6-((1-(7-fluoro-3-(3-fluorophenyl)-6-methyl-4-oxo-4H-quinolizin-2-yl)ethyl)amino)pyrimidine-5-carbonitrile], 0.1 to 10 nM.
As for `Cc1c(F)ccc2cc([C@H](C)Nc3ncnc4[nH]cnc34)c(-c3ccccc3)c(=O)n12` (single isomer, unassigned) [Compound 24a, 2-(1-((9H-purin-6-yl)amino)ethyl)-7-fluoro-6-methyl-3-phenyl-4H-quinolizin-4-one], the figure is 0.1 to 10 nM.
`CC[C@H](Nc1ncnc(N)c1C#N)c1cc2ccc(F)cn2c(=O)c1-c1ccccc1` (single isomer, unassigned) [Compound 41a, 4-Amino-6-((1-(7-fluoro-4-oxo-3-phenyl-4H-quinolizin-2-yl)propyl)amino)pyrimidine-5-carbonitrile]: the IC50 lay within 11 to 50 nM.
Regarding `CC[C@H](Nc1nc(N)nc(N)c1C#N)c1cc2ccc(F)cn2c(=O)c1-c1ccccc1` (single isomer, unassigned) [Compound 42a, 2,4-diamino-6-((1-(7-fluoro-4-oxo-3-phenyl-4H-quinolizin-2-yl)propyl)amino)pyrimidine-5-carbonitrile], the IC50 is 0.1 to 10 nM.
For `CC[C@H](Nc1ncnc(N)c1C#N)c1cc2ccc(F)cn2c(=O)c1-c1cccc(F)c1` (single isomer, unassigned) [Compound 44a, 4-Amino-6-((1-(7-fluoro-3-(3-fluorophenyl)-4-oxo-4H-quinolizin-2-yl)propyl)amino)pyrimidine-5-carbonitrile], the IC50 was 11 to 50 nM.
As for `CC[C@H](Nc1nc(N)nc(N)c1C#N)c1cc2ccc(F)cn2c(=O)c1-c1cccc(F)c1` (single isomer, unassigned) [Compound 45a, 2,4-diamino-6-((1-(7-fluoro-3-(3-fluorophenyl)-4-oxo-4H-quinolizin-2-yl)propyl)amino)pyrimidine-5-carbonitrile], the figure is 0.1 to 10 nM; as for `CC[C@H](Nc1nc(N)nc2[nH]cnc12)c1cc2ccc(F)cn2c(=O)c1-c1cccc(F)c1` (single isomer, unassigned) [Compound 47b, 2-(1-((2-amino-9H-purin-6-yl)amino)propyl)-7-fluoro-3-(3-fluorophenyl)-4H-quinolizin-4-one], 11 to 50 nM; as for `C[C@@H](c1cc2ccc(F)cn2c(=O)c1-c1ccccc1)n1nc(-c2cc(F)cc(NS(C)(=O)=O)c2)c2c(N)ncnc21` (single isomer, unassigned) [Compound 58a, N-(3-(4-amino-1-(1-(7-fluoro-4-oxo-3-phenyl-4H-quinolizin-2-yl)ethyl)-1H-pyrazolo[3,4-d]pyrimidin-3-yl)-5-fluorophenyl)methanesulfonamide], 11 to 50 nM.
With `COc1ccc(-c2nn([C@@H](C)c3cc4ccc(F)cn4c(=O)c3-c3ccccc3)c3ncnc(N)c23)cn1` (single isomer, unassigned) [Compound 64a, 2-(1-(4-amino-3-(6-methoxypyridin-3-yl)-1H-pyrazolo[3,4-d]pyrimidin-1-yl)ethyl)-7-fluoro-3-phenyl-4H-quinolizin-4-one], the IC50 was 11 to 50 nM.
As for `COc1ncc(-c2nn([C@@H](C)c3cc4ccc(F)cn4c(=O)c3-c3ccccc3)c3ncnc(N)c23)cc1NS(C)(=O)=O` (single isomer, unassigned) [Compound 67a, N-(5-(4-amino-1-(1-(7-fluoro-4-oxo-3-phenyl-4H-quinolizin-2-yl)ethyl)-1H-pyrazolo[3,4-d]pyrimidin-3-yl)-2-methoxypyridin-3-yl)methanesulfonamide], the figure is 0.1 to 10 nM; as for `C[C@H](Nc1ncnc2[nH]cc(C#N)c12)c1cc2ccc(F)cn2c(=O)c1-c1ccccc1` [Compound 28, (S)-4-((1-(7-fluoro-4-oxo-3-phenyl-4H-quinolizin-2-yl)ethyl)amino)-7H-pyrrolo[2,3-d]pyrimidine-5-carbonitrile], 0.1 to 10 nM.
